Source: PMC11233931, “Remodeling tumor‐associated macrophage for anti‐cancer effects by rational design of irreversible inhibition of mitogen‐activated protein kinase‐activated protein kinase 2” (MedComm, 2024)

Experiments:
Assay in all cases: Eurofins kinase selectivity profile against 380 other human recombinant kinases (Table S2)
Assay type in all cases: biochemical
[1] = target: T1, 380 human recombinant protein kinases (Homo sapiens, UniProt Q9UHD2); conditions: TBK1(h), read-out: Inhibition rate (%)
T1 construct: purchased Eurofins (Celle Lévescault)
T1 sequence (Q9UHD2 1-729): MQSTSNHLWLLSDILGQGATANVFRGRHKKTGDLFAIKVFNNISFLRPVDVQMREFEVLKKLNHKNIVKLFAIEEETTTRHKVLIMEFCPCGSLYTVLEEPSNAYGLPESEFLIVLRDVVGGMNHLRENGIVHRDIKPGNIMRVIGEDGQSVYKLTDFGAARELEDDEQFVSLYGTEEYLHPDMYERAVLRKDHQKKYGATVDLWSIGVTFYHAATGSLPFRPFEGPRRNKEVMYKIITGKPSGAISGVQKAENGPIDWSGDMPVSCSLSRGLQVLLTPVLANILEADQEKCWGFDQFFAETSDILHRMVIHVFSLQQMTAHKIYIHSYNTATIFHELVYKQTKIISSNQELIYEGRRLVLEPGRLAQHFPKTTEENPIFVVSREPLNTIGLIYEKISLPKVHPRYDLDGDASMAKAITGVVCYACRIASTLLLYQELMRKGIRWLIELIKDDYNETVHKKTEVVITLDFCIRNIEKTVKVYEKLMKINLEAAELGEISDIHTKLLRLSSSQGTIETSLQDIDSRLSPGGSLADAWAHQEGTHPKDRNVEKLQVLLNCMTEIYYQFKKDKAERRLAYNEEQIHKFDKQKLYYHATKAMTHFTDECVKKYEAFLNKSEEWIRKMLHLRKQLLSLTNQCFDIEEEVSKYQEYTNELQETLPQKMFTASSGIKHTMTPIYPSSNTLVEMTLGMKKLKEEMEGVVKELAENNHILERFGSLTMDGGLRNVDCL
How it was run: (§1)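 Selectivity panel of 380 human recombinant protein kinases, screened by Eurofins at a range of concentrations.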

[2] = target: T2, 380 human recombinant protein kinases (Homo sapiens, UniProt P51813); conditions: Bmx(h), read-out: Inhibition rate
T2 construct: purchased Eurofins (Celle Lévescault)
T2 sequence (P51813 1-675): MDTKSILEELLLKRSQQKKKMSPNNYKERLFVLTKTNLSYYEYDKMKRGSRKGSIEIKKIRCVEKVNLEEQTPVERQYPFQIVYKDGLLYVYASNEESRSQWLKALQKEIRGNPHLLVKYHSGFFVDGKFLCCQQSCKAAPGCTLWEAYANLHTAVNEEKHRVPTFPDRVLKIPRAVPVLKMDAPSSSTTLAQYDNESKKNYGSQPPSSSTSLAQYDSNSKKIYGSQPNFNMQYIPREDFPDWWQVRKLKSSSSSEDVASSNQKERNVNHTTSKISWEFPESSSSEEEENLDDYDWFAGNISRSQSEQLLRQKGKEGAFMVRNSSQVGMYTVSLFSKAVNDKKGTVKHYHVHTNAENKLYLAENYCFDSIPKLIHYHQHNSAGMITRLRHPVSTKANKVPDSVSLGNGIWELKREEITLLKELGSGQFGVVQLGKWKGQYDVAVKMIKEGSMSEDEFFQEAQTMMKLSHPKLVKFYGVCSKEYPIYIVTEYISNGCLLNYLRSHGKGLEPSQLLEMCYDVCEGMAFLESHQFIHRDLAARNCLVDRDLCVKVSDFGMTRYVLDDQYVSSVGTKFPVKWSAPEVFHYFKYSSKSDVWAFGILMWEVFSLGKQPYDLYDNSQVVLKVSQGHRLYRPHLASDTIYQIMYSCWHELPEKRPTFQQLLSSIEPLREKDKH
How it was run: as §1

[3] = target: T3, 380 human recombinant protein kinases (Homo sapiens, UniProt P09619); conditions: PDGFRβ(h), read-out: Inhibition rate
T3 construct: purchased Eurofins (Celle Lévescault)
T3 sequence (P09619 33-1106): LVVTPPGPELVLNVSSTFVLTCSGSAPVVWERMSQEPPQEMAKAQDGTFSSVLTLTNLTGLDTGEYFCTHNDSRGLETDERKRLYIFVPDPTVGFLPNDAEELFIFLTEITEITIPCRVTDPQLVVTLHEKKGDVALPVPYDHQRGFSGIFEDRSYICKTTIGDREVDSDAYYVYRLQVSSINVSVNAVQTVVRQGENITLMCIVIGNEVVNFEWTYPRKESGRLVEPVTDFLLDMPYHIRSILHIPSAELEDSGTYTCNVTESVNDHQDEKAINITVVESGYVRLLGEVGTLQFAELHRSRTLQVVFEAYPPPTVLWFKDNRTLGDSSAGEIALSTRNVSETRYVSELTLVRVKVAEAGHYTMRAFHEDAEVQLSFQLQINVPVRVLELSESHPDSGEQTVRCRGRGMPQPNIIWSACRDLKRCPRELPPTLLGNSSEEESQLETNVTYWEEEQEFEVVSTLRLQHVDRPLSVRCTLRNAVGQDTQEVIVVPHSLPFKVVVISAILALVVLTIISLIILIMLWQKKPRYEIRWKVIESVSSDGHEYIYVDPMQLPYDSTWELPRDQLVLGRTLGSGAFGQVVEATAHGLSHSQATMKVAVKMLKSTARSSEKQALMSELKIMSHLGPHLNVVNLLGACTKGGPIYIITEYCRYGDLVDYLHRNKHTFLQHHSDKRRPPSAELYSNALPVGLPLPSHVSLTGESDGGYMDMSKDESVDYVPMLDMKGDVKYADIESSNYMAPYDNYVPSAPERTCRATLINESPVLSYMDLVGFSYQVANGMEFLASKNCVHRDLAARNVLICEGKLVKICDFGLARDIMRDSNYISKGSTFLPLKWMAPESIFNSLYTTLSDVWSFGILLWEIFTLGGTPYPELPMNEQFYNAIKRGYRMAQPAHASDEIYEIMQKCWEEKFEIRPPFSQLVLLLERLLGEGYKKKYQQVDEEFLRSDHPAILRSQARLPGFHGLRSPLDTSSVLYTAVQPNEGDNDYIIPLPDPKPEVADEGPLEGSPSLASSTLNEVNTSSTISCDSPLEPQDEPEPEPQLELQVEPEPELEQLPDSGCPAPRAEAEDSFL
How it was run: as §1

[4] = target: T4, 380 human recombinant protein kinases (Homo sapiens, UniProt Q8IVH8); conditions: MAP4K3(h), read-out: Inhibition rate
T4 construct: purchased Eurofins (Celle Lévescault)
T4 sequence (Q8IVH8 1-894): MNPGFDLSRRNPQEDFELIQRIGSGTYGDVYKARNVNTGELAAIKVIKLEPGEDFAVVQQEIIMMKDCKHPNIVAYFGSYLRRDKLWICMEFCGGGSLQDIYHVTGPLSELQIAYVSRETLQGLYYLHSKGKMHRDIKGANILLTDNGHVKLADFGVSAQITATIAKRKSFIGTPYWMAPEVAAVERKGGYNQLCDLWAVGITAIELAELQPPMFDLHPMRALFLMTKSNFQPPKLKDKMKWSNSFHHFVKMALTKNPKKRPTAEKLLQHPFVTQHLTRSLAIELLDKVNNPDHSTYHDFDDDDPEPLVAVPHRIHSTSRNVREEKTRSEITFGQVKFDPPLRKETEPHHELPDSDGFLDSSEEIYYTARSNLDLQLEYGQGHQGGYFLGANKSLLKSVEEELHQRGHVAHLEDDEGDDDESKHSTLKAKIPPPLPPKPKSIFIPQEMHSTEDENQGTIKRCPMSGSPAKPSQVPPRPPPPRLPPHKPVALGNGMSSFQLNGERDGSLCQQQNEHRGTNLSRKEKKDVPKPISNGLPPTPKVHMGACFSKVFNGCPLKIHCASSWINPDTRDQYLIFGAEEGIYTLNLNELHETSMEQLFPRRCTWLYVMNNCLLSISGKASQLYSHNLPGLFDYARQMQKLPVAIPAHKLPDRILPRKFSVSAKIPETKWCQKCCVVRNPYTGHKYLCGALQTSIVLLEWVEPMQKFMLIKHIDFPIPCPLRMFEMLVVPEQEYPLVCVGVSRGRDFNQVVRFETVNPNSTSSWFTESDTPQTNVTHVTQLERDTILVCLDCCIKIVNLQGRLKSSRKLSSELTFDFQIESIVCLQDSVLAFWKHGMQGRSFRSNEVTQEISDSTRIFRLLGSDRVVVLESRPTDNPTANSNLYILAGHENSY
How it was run: as §1

[5] = target: T5, 380 human recombinant protein kinases (Homo sapiens, UniProt Q9Y2H1); conditions: NDR2(h), read-out: Inhibition rate
T5 construct: purchased Eurofins (Celle Lévescault)
T5 sequence (Q9Y2H1 whole entry): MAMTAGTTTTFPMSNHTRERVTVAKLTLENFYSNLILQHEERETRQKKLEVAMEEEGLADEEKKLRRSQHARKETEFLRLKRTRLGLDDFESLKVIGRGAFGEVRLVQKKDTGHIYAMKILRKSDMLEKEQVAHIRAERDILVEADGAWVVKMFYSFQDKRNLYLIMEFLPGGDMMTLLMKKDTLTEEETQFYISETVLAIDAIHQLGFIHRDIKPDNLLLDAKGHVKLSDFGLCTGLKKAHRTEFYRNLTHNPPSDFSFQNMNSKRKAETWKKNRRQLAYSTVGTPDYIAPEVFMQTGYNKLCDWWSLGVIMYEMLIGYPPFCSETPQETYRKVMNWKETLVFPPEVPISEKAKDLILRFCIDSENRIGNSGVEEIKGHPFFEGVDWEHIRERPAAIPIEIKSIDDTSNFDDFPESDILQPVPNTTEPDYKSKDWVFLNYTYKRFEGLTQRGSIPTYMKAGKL
How it was run: as §1

C=CC(=O)Nc1cc(-c2cc(-c3cc4c([nH]3)CCNC4=O)ccn2)ccc1OC(F)(F)F [compound 11]
inhibition at 0.01 µM ([1]; 10 nM): 1% | inhibition at 0.1 µM ([1]; 100 nM): -13% | inhibition at 1 µM ([1]; 1000 nM): -7% | inhibition at 0.01 µM ([2]; 10 nM): 1% | inhibition at 0.1 µM ([2]; 100 nM): -4% | inhibition at 1 µM ([2]; 1000 nM): -5% | inhibition at 0.01 µM ([3]; 10 nM): 0% | inhibition at 0.1 µM ([3]; 100 nM): -16% | inhibition at 1 µM ([3]; 1000 nM): -11% | inhibition at 0.01 µM ([4]; 10 nM): -8% | inhibition at 0.1 µM ([4]; 100 nM): -4% | inhibition at 1 µM ([4]; 1000 nM): 3% | inhibition at 0.01 µM ([5]; 10 nM): -5% | inhibition at 0.1 µM ([5]; 100 nM): -10% | inhibition at 1 µM ([5]; 1000 nM): -2%
